The experiment deals with HLA A*3001 (Homo sapiens, UniProt P04439, D140H/D185E/E176W/F33S/G80R/H175R/K168Q/R138E/R41S). Description: biochemical. The class given is binding.

Where a SMILES comes first, the peptide text is derived from it.

HLA A*3001, sequence (P04439 25-365 limits assumed, stated change not applied): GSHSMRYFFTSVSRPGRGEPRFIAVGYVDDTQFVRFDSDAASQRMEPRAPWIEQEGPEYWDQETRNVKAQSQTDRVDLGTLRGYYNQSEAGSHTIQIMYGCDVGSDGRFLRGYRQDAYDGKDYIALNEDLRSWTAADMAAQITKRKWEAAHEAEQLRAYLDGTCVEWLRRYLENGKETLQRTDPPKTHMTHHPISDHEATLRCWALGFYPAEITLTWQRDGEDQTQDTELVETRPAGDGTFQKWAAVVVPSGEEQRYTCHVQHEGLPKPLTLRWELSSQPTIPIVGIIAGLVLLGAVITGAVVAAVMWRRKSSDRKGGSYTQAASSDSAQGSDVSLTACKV

What is called IC50 is the concentration needed to halve the response being measured. A high value points to lower potency. `CC(C)C[C@H](NC(=O)[C@@H](N)CCCNC(=N)N)C(=O)N[C@@H](CCCCN)C(=O)N[C@@H](CC(=O)O)C(=O)N[C@@H](Cc1ccc(O)cc1)C(=O)N[C@@H](CCC(N)=O)C(=O)N[C@@H](Cc1c[nH]cn1)C(=O)N[C@@H](Cc1ccccc1)C(=O)N[C@H](C(=O)O)C(C)C` [3102.0208] (H-RLKDYQHFV-OH) yielded a half-maximal inhibitory concentration (IC50) of 390 pM. In the case of `CSCC[C@H](N)C(=O)NCC(=O)N[C@@H](CCCNC(=N)N)C(=O)N[C@@H](Cc1ccccc1)C(=O)NCC(=O)N[C@@H](Cc1ccc(O)cc1)C(=O)N[C@H](C(=O)N1CCC[C@H]1C(=O)N[C@@H](Cc1ccc(O)cc1)C(=O)O)C(C)C` [3102.0212] (H-MGRFGYVPY-OH) it was 15000 pM; in that of `CC[C@H](C)[C@H](NC(=O)[C@@H](N)CO)C(=O)N[C@@H](CCCCN)C(=O)N[C@@H](CCCNC(=N)N)C(=O)N[C@@H](CO)C(=O)N[C@@H](CC(N)=O)C(=O)N[C@H](C(=O)N[C@@H](Cc1ccccc1)C(=O)N[C@@H](C)C(=O)O)C(C)C` [3102.0214] (H-SIKRSNVFA-OH), 3600 pM.

In turn, `CC(C)C[C@H](NC(=O)[C@@H]1CCCN1C(=O)[C@H](Cc1c[nH]cn1)NC(=O)[C@@H](NC(=O)[C@H](CS)NC(=O)[C@H](CCCCN)NC(=O)[C@@H](NC(=O)[C@@H](N)CO)C(C)C)[C@@H](C)O)C(=O)N[C@H](C(=O)O)C(C)C` [3102.0215] (H-SVKCTHPLV-OH) showed an IC50 of 970 pM.

The molecule `CC[C@H](C)[C@H](NC(=O)[C@H](CCCNC(=N)N)NC(=O)[C@@H]1CCCN1C(=O)[C@H](CO)NC(=O)[C@H](C)NC(=O)[C@H](CCCNC(=N)N)NC(=O)[C@H](CO)NC(=O)[C@@H](N)Cc1c[nH]cn1)C(=O)NCC(=O)O` [3102.0216] (H-HSRASPRIG-OH) returned an IC50 of 930 pM. In the case of `CSCC[C@H](NC(=O)[C@H](CC(C)C)NC(=O)[C@H](CCCNC(=N)N)NC(=O)[C@H](C)NC(=O)[C@@H](N)CC(N)=O)C(=O)N[C@@H](CCCNC(=N)N)C(=O)N[C@@H](C)C(=O)N[C@@H](CC(C)C)C(=O)N[C@@H](CCCCN)C(=O)O` [3102.0218] (H-NARLMRALK-OH) it was 2200 pM; in that of `CSCC[C@H](NC(=O)[C@H](Cc1ccc(O)cc1)NC(=O)[C@H](CC(N)=O)NC(=O)[C@H](Cc1ccc(O)cc1)NC(=O)[C@H](CO)NC(=O)[C@H](CCCCN)NC(=O)[C@@H](NC(=O)[C@@H](N)CCCCN)C(C)C)C(=O)N[C@@H](CC(C)C)C(=O)O` [3102.0219] (H-KVKSYNYML-OH), 180 pM; in that of `CC(C)C[C@H](NC(=O)[C@@H](N)CCCNC(=N)N)C(=O)N[C@@H](CCCCN)C(=O)N[C@@H](CO)C(=O)N[C@@H](C)C(=O)N[C@H](C(=O)N[C@@H](CS)C(=O)N[C@@H](Cc1ccc(O)cc1)C(=O)N[C@@H](CCCCN)C(=O)O)C(C)C` [3102.0220] (H-RLKSAVCYK-OH), 180 pM. In the case of `C[C@@H](O)[C@H](N)C(=O)N[C@@H](Cc1ccccc1)C(=O)N[C@@H](CCCNC(=N)N)C(=O)N[C@@H](CCC(=O)O)C(=O)N[C@@H](CCCNC(=N)N)C(=O)N[C@@H](Cc1ccc(O)cc1)C(=O)N[C@@H](CO)C(=O)N[C@@H](Cc1ccc(O)cc1)C(=O)N[C@@H](CCCCN)C(=O)O` [3102.0221] (H-TFRERYSYK-OH) it was 890 pM; in that of `CC[C@H](C)[C@H](NC(=O)[C@H](CC(N)=O)NC(=O)[C@@H]1CCCN1C(=O)[C@@H](NC(=O)[C@H](Cc1c[nH]cn1)NC(=O)[C@H](CC(N)=O)NC(=O)[C@H](CCCCN)NC(=O)[C@@H](NC(=O)[C@@H](N)CCCCN)C(C)C)[C@@H](C)CC)C(=O)O` [3102.0222] (H-KVKNHIPNI-OH), 680 pM; in that of `C[C@H](NC(=O)[C@H](C)NC(=O)[C@H](CC(N)=O)NC(=O)[C@H](CCC(N)=O)NC(=O)[C@@H]1CCCN1C(=O)[C@H](CC(=O)O)NC(=O)[C@H](CCCNC(=N)N)NC(=O)[C@@H](NC(=O)[C@@H](N)Cc1c[nH]cn1)[C@@H](C)O)C(=O)O` [3102.0224] (H-HTRDPQNAA-OH), 910 pM. In the case of `CC[C@H](C)[C@H](NC(=O)[C@@H](NC(=O)[C@@H](N)CCSC)[C@@H](C)O)C(=O)N[C@@H](CCCNC(=N)N)C(=O)N[C@@H](CCC(=O)O)C(=O)N[C@@H](Cc1ccccc1)C(=O)N1CCC[C@H]1C(=O)N[C@@H](CCCNC(=N)N)C(=O)N[C@@H](CCCCN)C(=O)O` [3102.0225] (H-MTIREFPRK-OH) it was 1600 pM. Take `CC[C@H](C)[C@H](NC(=O)[C@H](Cc1ccc(O)cc1)NC(=O)CNC(=O)CNC(=O)[C@@H](NC(=O)[C@H](Cc1ccccc1)NC(=O)[C@H](CCCNC(=N)N)NC(=O)[C@H](C)NC(=O)[C@@H](N)CCCNC(=N)N)[C@@H](C)CC)C(=O)O` [3102.0226] (H-RARFIGGYI-OH): half-maximal inhibition (IC50) was put at 260 pM. In the case of `CC(C)C[C@H](NC(=O)[C@H](CCC(N)=O)NC(=O)CNC(=O)[C@H](CC(=O)O)NC(=O)[C@H](CCCNC(=N)N)NC(=O)[C@@H](NC(=O)[C@@H](N)[C@@H](C)O)C(C)C)C(=O)N[C@@H](CCC(=O)O)C(=O)N[C@H](C(=O)O)C(C)C` [3102.0228] (H-TVRDGQLEV-OH) it was 13000 pM; in that of `CC[C@H](C)[C@H](NC(=O)[C@H](CC(C)C)NC(=O)[C@H](CO)NC(=O)CNC(=O)[C@@H]1CCCN1C(=O)[C@H](CCCNC(=N)N)NC(=O)[C@H](Cc1ccccc1)NC(=O)[C@@H](N)CCCCN)C(=O)N[C@@H](Cc1ccc(O)cc1)C(=O)O` [3102.0230] (H-KFRPGSLIY-OH), 300 pM; in that of `CSCC[C@H](NC(=O)[C@@H](N)CCCCN)C(=O)N[C@@H](CCCNC(=N)N)C(=O)N[C@@H](CCCNC(=N)N)C(=O)N[C@@H](CCC(=O)O)C(=O)N[C@@H](CCCNC(=N)N)C(=O)N[C@@H](C)C(=O)N[C@@H](C)C(=O)N[C@@H](Cc1ccc(O)cc1)C(=O)O` [3102.0231] (H-KMRRERAAY-OH), 3000 pM. In the case of `CSCC[C@H](N)C(=O)N[C@@H](CCCNC(=N)N)C(=O)N[C@@H](CCCNC(=N)N)C(=O)N[C@@H](CCC(=O)O)C(=O)N[C@@H](CCCNC(=N)N)C(=O)N[C@@H](C)C(=O)N[C@@H](C)C(=O)N[C@@H](Cc1ccc(O)cc1)C(=O)N[C@H](C(=O)O)C(C)C` [3102.0232] (H-MRRERAAYV-OH) it was 22000 pM; in that of `CC(C)C[C@H](NC(=O)[C@H](CCC(=O)O)NC(=O)[C@H](CCCNC(=N)N)NC(=O)[C@H](CCCCN)NC(=O)[C@H](Cc1ccc(O)cc1)NC(=O)[C@H](Cc1ccccc1)NC(=O)[C@H](CCCCN)NC(=O)[C@@H](NC(=O)[C@@H](N)CCCCN)C(C)C)C(=O)O` [3102.0235] (H-KVKFYKREL-OH), 42000 pM.

As for `CC[C@H](C)[C@H](NC(=O)[C@H](CCCNC(=N)N)NC(=O)[C@@H](NC(=O)[C@@H](N)CCCCN)[C@@H](C)O)C(=O)N[C@@H](CCCNC(=N)N)C(=O)N[C@@H](CC(N)=O)C(=O)N[C@@H](CC(C)C)C(=O)N[C@@H](CCCCN)C(=O)N[C@@H](CCCNC(=N)N)C(=O)O` [3102.0236] (H-KTRIRNLKR-OH), the IC50 turned out to be 6500 pM. This IC50 is about 6.5-fold lower than that of the molecule before. In the case of `CC[C@H](C)[C@H](NC(=O)[C@H](CCC(N)=O)NC(=O)[C@H](CCC(=O)O)NC(=O)[C@H](CCCNC(=N)N)NC(=O)[C@H](C)NC(=O)[C@@H](N)CCCNC(=N)N)C(=O)N[C@@H](CO)C(=O)N[C@@H](CC(N)=O)C(=O)N[C@@H](CC(C)C)C(=O)O` [3102.0237] (H-RAREQISNL-OH) it was 2700 pM; in that of `CC(C)C[C@H](NC(=O)[C@H](CC(=O)O)NC(=O)[C@H](CCCCN)NC(=O)[C@@H](NC(=O)[C@@H](N)CCCCN)C(C)C)C(=O)N[C@@H](Cc1ccccc1)C(=O)N[C@@H](CC(N)=O)C(=O)N[C@H](C(=O)N[C@@H](CCCCN)C(=O)O)[C@@H](C)O` [3102.0238] (H-KVKDLFNTK-OH), 38000 pM.

For the molecule `CC[C@H](C)[C@H](NC(=O)[C@@H](NC(=O)[C@@H](NC(=O)[C@H](CCCCN)NC(=O)[C@H](C)NC(=O)[C@@H](N)CCCCN)[C@@H](C)O)[C@@H](C)O)C(=O)N[C@@H](CO)C(=O)N[C@@H](CC(N)=O)C(=O)N[C@@H](Cc1ccc(O)cc1)C(=O)O` [3102.0241] (H-KAKTTISNY-OH), inhibition was half-maximal at 24000 pM (IC50).

`CC(C)C[C@H](NC(=O)[C@H](CC(N)=O)NC(=O)[C@@H](NC(=O)[C@H](CC(C)C)NC(=O)[C@H](CCCNC(=N)N)NC(=O)[C@H](CCC(N)=O)NC(=O)[C@@H](N)CCCCN)[C@@H](C)O)C(=O)N[C@@H](CCC(=O)O)C(=O)N[C@@H](CCCCN)C(=O)O` [3102.0243] (H-KQRLTNLEK-OH) came in with a half-inhibitory concentration (IC50) of 950 pM.

`CC[C@H](C)[C@H](NC(=O)[C@H](CCSC)NC(=O)[C@H](C)NC(=O)[C@H](C)NC(=O)[C@H](CCCNC(=N)N)NC(=O)[C@H](CC(C)C)NC(=O)[C@@H](N)[C@@H](C)O)C(=O)N[C@@H](CO)C(=O)N[C@@H](CC(C)C)C(=O)O` [3102.0245] (H-TLRAAMISL-OH): the midpoint of inhibition, the IC50, lay at 710 pM. The IC50 values of the last two molecules are within 1.5-fold of each other. In the case of `CC[C@H](C)[C@H](NC(=O)[C@H](CC(C)C)NC(=O)[C@H](CO)NC(=O)[C@@H](NC(=O)[C@H](CCCNC(=N)N)NC(=O)[C@@H](NC(=O)[C@@H](N)CCCNC(=N)N)C(C)C)[C@@H](C)CC)C(=O)N[C@@H](Cc1ccc(O)cc1)C(=O)N[C@@H](CC(C)C)C(=O)O` [3102.0249] (H-RVRISLIYL-OH) it was 92 pM; in that of `CC(C)C[C@H](NC(=O)[C@H](CO)NC(=O)[C@H](Cc1c[nH]cn1)NC(=O)[C@H](CC(C)C)NC(=O)[C@H](CCCNC(=N)N)NC(=O)[C@H](C)NC(=O)[C@H](CO)NC(=O)[C@@H](NC(=O)[C@@H](N)Cc1c[nH]cn1)[C@@H](C)O)C(=O)O` [3102.0250] (H-HTSARLHSL-OH), 4100 pM. In the case of `C[C@@H](O)[C@H](N)C(=O)N[C@H](C(=O)N[C@@H](CCCCN)C(=O)N[C@@H](CC(N)=O)C(=O)NCC(=O)N[C@@H](CCC(N)=O)C(=O)N1CCC[C@H]1C(=O)N[C@@H](CCCNC(=N)N)C(=O)N[C@@H](CCCCN)C(=O)O)[C@@H](C)O` [3102.0252] (H-TTKNGQPRK-OH) it was 230 pM; in that of `CC[C@H](C)[C@H](NC(=O)[C@H](CC(N)=O)NC(=O)[C@H](CO)NC(=O)[C@H](CCSC)NC(=O)[C@H](CC(C)C)NC(=O)[C@H](CCCCN)NC(=O)[C@@H](NC(=O)[C@@H](N)CCCNC(=N)N)[C@@H](C)O)C(=O)N[C@@H](CCCCN)C(=O)O` [3102.0253] (H-RTKLMSNIK-OH), 380 pM.
